{
  "source": "patent US20080305186A1",
  "about": "“Method and Composition for the Treatment of Cardiac Hypertrophy” (BOARD OF REGENTS, THE UNIVERSITY OF TEXAS SYSTEM, priority 2007, published 2008)",
  "system": "cardiac gene expression",
  "experiment": "Microarray analysis of cardiac gene expression (GeneChip Mouse Genome 430 2.0)",
  "type": "in vivo, mice",
  "description": "Microarray Sample Preparation and Analysis. Animal hearts were rapidly removed, and the atria and right ventricles were cut and immediately plunged into TRIzol Reagent (Life Technologies). Total RNA was isolated following the manufacturer's instructions, purified by phenol-chloroform extraction and then ethanol precipitation, and 20 μg further processed for microarray analysis. Briefly, cDNA synthesis, in vitro transcription, and labeling and fragmentation to produce the oligonucleotide probes were performed as instructed by the GeneChip manufacturer (Affymetrix). The probes were first hybridized to a test array (Affymetrix) and then to the GeneChip Mouse Genome 430 2.0 Array, using the GeneChip Hybridization Oven 640. The chips were washed in a GeneChip Fluidics Station 450 (Affymetrix), and the results were visualized with a GeneChip G7 scanner (Affymetrix). RMA normalization, pairwise comparisons, Student's t test and Benjamini and Hochberg correction were subsequently performed using GeneSifter (VizX Labs, Seattle, Wash.) and Spotfire DecisionSite 8.3 (Spotfire, Inc., Somerville, Mass.).\nEffects on Gene Expression Profile. […] One mouse heart was used for each array, and was performed in triplicate, generating a total of 12 arrays. GeneSifter was used to perform RMA normalization, pairwise comparisons of averaged signal intensity values, and Student's t-test with Benjamini and Hochberg correction, and Spotfire was used to perform pairwise comparisons. […] Additionally, genes that were altered between any two N or cardiac hypertrophy samples were removed, as these alterations most likely represented normal variations between mice.",
  "key": {"[1]": {"conditions": "mouse heart, vs isoproterenol only (CH), CH vs normal 7.4"}, "[2]": {"conditions": "mouse heart, vs isoproterenol only (CH), CH vs normal −1.7"}, "[3]": {"conditions": "mouse heart, vs isoproterenol only (CH), CH vs normal −1.8"}, "[4]": {"conditions": "mouse heart, vs isoproterenol only (CH), CH vs normal −1.9"}, "[5]": {"conditions": "mouse heart, vs isoproterenol only (CH), CH vs normal −2.0"}, "[6]": {"conditions": "mouse heart, vs isoproterenol only (CH), CH vs normal −2.1"}, "[7]": {"conditions": "mouse heart, vs isoproterenol only (CH), CH vs normal −2.4"}, "[8]": {"conditions": "mouse heart, vs isoproterenol only (CH), CH vs normal −2.5"}, "[9]": {"conditions": "mouse heart, vs isoproterenol only (CH), CH vs normal −2.6"}, "[10]": {"conditions": "mouse heart, vs isoproterenol only (CH), CH vs normal −2.7"}, "[11]": {"conditions": "mouse heart, vs isoproterenol only (CH), CH vs normal −2.9"}, "[12]": {"conditions": "mouse heart, vs isoproterenol only (CH), CH vs normal −3.0"}, "[13]": {"conditions": "mouse heart, vs isoproterenol only (CH), CH vs normal −3.2"}, "[14]": {"conditions": "mouse heart, vs isoproterenol only (CH), CH vs normal −3.3"}},
  "data": [
    {"compound": "NC(=O)N1c2ccccc2C=Cc2ccccc21", "note": "[carbamazepine]", "values": [
      {"measurement": "FC Membrane-spanning 4-domains, subfamily A, member 6d (Ms4a6d), NM_026835", "setting": "mouse heart, vs isoproterenol only (CH), CH vs normal 6.4", "value": "−1.6", "unit": "fold"},
      {"measurement": "FC Proteoglycan 4 (megakaryocyte stimulating factor, articular superficial zone protein) (Prg4), NM_021400", "setting": "mouse heart, vs isoproterenol only (CH), CH vs normal 6.8", "value": "−1.5", "unit": "fold"},
      {"measurement": "FC CCAATenhaer binding protein (CEBP), delta (Cebpd), BB831146", "setting": "[1]", "value": "−1.6", "unit": "fold"},
      {"measurement": "FC Ca(2+)-sensitive chloride channel 2 (Clca2), AF108501", "setting": "[1]", "value": "−2.0", "unit": "fold"},
      {"measurement": "FC Lysyl oxidase (Lox), M65143", "setting": "[1]", "value": "−2.1", "unit": "fold"},
      {"measurement": "FC Cytokine inducible SH2-containing protein 3 (Socs3), BB831725", "setting": "mouse heart, vs isoproterenol only (CH), CH vs normal 8.2", "value": "−2.4", "unit": "fold"},
      {"measurement": "FC C-type (calcium dependent, carbohydrate recognition domain) lectin, superfamily member 8 (Clecsf8), NM_010819", "setting": "mouse heart, vs isoproterenol only (CH), CH vs normal 10.8", "value": "−1.7", "unit": "fold"},
      {"measurement": "FC Lysyl oxidase (Lox), NM_010728", "setting": "mouse heart, vs isoproterenol only (CH), CH vs normal 11.1", "value": "−2.4", "unit": "fold"},
      {"measurement": "FC FK506 binding protein 5 (51 kDa) (Fkbp5), BC015260", "setting": "mouse heart, vs isoproterenol only (CH), CH vs normal 16.3", "value": "−1.6", "unit": "fold"},
      {"measurement": "FC Lipocalin 2 (Lcn2), X14607", "setting": "mouse heart, vs isoproterenol only (CH), CH vs normal 27.7", "value": "−1.6", "unit": "fold"},
      {"measurement": "FC Serine protease inhibitor 2-2 (Spi2-2) (Serpin3n), NM_009252", "setting": "mouse heart, vs isoproterenol only (CH), CH vs normal 40.5", "value": "−2.3", "unit": "fold"},
      {"measurement": "FC Metallophosphoesterase domain containing 2 (Mpped2), AK012553", "setting": "mouse heart, vs isoproterenol only (CH), CH vs normal −1.5", "value": 1.6, "unit": "fold"},
      {"measurement": "FC cDNA, BM229539", "setting": "mouse heart, vs isoproterenol only (CH), CH vs normal −1.6", "value": 1.6, "unit": "fold"},
      {"measurement": "FC Cytoplasmic polyadenylation element binding protein 3 (Cpeb3), BB281000", "setting": "[2]", "value": 1.8, "unit": "fold"},
      {"measurement": "FC EphrinB3 (Efnb3), BQ175608", "setting": "[2]", "value": 1.5, "unit": "fold"},
      {"measurement": "FC Nuclear factor IB (Nfib), BB092799", "setting": "[2]", "value": 2.0, "unit": "fold"},
      {"measurement": "FC Preimplantation protein 4 (Prei4), BB550273", "setting": "[2]", "value": 1.7, "unit": "fold"},
      {"measurement": "FC Triple futional domain (PTPRF interacting) (Trio), BB794936", "setting": "[2]", "value": 1.7, "unit": "fold"},
      {"measurement": "FC EST, BB126796", "setting": "[3]", "value": 2.2, "unit": "fold"},
      {"measurement": "FC EST, BB451134", "setting": "[3]", "value": 2.2, "unit": "fold"},
      {"measurement": "FC Metastasis suppressor 1 (Mtss1), BB326749", "setting": "[3]", "value": 1.6, "unit": "fold"},
      {"measurement": "FC Tetratricopeptide repeat domain (Ttc3), BB833716", "setting": "[3]", "value": 2.0, "unit": "fold"},
      {"measurement": "FC EST, BM941198", "setting": "[4]", "value": 1.7, "unit": "fold"},
      {"measurement": "FC Jumonji, AT rich interactive domain 1A (Rbp2 like) (Jarid1a), BB376407", "setting": "[4]", "value": 1.8, "unit": "fold"},
      {"measurement": "FC Guanine nucleotide binding protein, alpha 12 (Gna12), NM_010302", "setting": "[5]", "value": 1.6, "unit": "fold"},
      {"measurement": "FC Zi finger and BTB domain containing 20 (Zbtb20), BB175650", "setting": "[5]", "value": 1.9, "unit": "fold"},
      {"measurement": "FC C1q and tumor necrosis factor related protein 4 (C1qtnf4), NM_026161", "setting": "[6]", "value": 1.5, "unit": "fold"},
      {"measurement": "FC Cold inducible RNA binding protein (Cirbp), NM_007705", "setting": "[6]", "value": 2.1, "unit": "fold"},
      {"measurement": "FC Adrenergic receptor, alpha 1b (Adra1b), NM_007416", "setting": "mouse heart, vs isoproterenol only (CH), CH vs normal −2.3", "value": 1.6, "unit": "fold"},
      {"measurement": "FC DNA segment, Chr 9, ERATO Doi 256, expressed, BG066667", "setting": "[7]", "value": 1.8, "unit": "fold"},
      {"measurement": "FC Insulin degrading enzyme (Ide), AK014703", "setting": "[7]", "value": 1.9, "unit": "fold"},
      {"measurement": "FC Sno, strawbeny notch homolog 1 (Sno1), BE947961", "setting": "[7]", "value": 1.6, "unit": "fold"},
      {"measurement": "FC B-cell translocation gene 2, anti-proliferative (Btg2), BG965405", "setting": "[8]", "value": 1.8, "unit": "fold"},
      {"measurement": "FC cDNA, BC026793", "setting": "[8]", "value": 1.8, "unit": "fold"},
      {"measurement": "FC Desmoglein 2 (Dsg2), AB072269", "setting": "[9]", "value": 2.5, "unit": "fold"},
      {"measurement": "FC Heat shock protein, 84 kDa 1 (Hsp90ab1), BI154147", "setting": "[9]", "value": 3.7, "unit": "fold"},
      {"measurement": "FC Myocyte enhaer factor 2C (Mef2c), AI595932", "setting": "[9]", "value": 1.9, "unit": "fold"},
      {"measurement": "FC Restin-like 2 (Rsnl2), AK018895", "setting": "[9]", "value": 1.9, "unit": "fold"},
      {"measurement": "FC Jumonji domain containing 3 (Jmjd3), AW763746", "setting": "[10]", "value": 1.9, "unit": "fold"},
      {"measurement": "FC cDNA (similar to integrin beta 1 binding protein 3), AK009897", "setting": "[10]", "value": 2.7, "unit": "fold"},
      {"measurement": "FC Karyopherin (importin) beta 1 (Kpnb1), AW544889", "setting": "mouse heart, vs isoproterenol only (CH), CH vs normal −2.8", "value": 2.3, "unit": "fold"},
      {"measurement": "FC PPAR gamma coactivator-1beta protein (Ppargc1b), NM_133249", "setting": "[11]", "value": 2.0, "unit": "fold"},
      {"measurement": "FC SET and MYND domain containing 1 (Smyd1), NM_009762", "setting": "[11]", "value": 1.7, "unit": "fold"},
      {"measurement": "FC Dual specificity phosphatase 8 (Dusp8), NM_008748", "setting": "[12]", "value": 1.8, "unit": "fold"},
      {"measurement": "FC GATA binding protein 4 (Gata4), NM_008092", "setting": "[12]", "value": 2.1, "unit": "fold"},
      {"measurement": "FC Actin, beta, cytoplasmic (Actb), AW537707", "setting": "[13]", "value": 1.7, "unit": "fold"},
      {"measurement": "FC Methionine sulfoxide reductase B3 (Msrb3), BB277041", "setting": "[13]", "value": 1.7, "unit": "fold"},
      {"measurement": "FC Thymoma viral proto-oogene 1 (Akt1), M94335", "setting": "[14]", "value": 1.6, "unit": "fold"},
      {"measurement": "FC cDNA, BB283973", "setting": "[14]", "value": 1.9, "unit": "fold"},
      {"measurement": "FC cDNA, BB534971", "setting": "mouse heart, vs isoproterenol only (CH), CH vs normal −3.5", "value": 1.6, "unit": "fold"},
      {"measurement": "FC cDNA, BB026304", "setting": "mouse heart, vs isoproterenol only (CH), CH vs normal −3.8", "value": 2.5, "unit": "fold"},
      {"measurement": "FC Kinesin-like protein (Kif1b), D17577", "setting": "mouse heart, vs isoproterenol only (CH), CH vs normal −3.9", "value": 1.6, "unit": "fold"},
      {"measurement": "FC Kv channel-interacting protein 2a (Kcnip2), AF439339", "setting": "mouse heart, vs isoproterenol only (CH), CH vs normal −4.4", "value": 2.6, "unit": "fold"},
      {"measurement": "FC Potassium voltage-gated channel, Isk-related subfamily, member 1 (Kcne1), NM_008424", "setting": "mouse heart, vs isoproterenol only (CH), CH vs normal −4.6", "value": 1.5, "unit": "fold"},
      {"measurement": "FC Tumor rejection antigen gp96 (Tra1); heat shock protein 90 kDa beta (Grp94), member 1 (Hsp90b1), BE995678", "setting": "mouse heart, vs isoproterenol only (CH), CH vs normal −9.4", "value": 2.7, "unit": "fold"},
      {"measurement": "FC Cadherin 13 (Cdh13), AK016527", "setting": "mouse heart, vs isoproterenol only (CH), CH vs normal −10.0", "value": 5.9, "unit": "fold"},
      {"measurement": "number of the 472 cardiac hypertrophy-specific Combo-altered genes also altered by the drug alone", "setting": "statistical parameters lifted (average fold-changes irrespective of statistical measures)", "value": 98},
      {"measurement": "G7e protein gene, fold-change", "setting": "the only gene significantly altered", "value": "−2.2", "unit": "fold"}
    ]}
  ]
}
